Laboratory results published in ChEMBL document CHEMBL5113376, “Antimalarial application of quinones: A recent update” (Eur J Med Chem, 2021).
Converted amounts (≈) assume the structure as drawn. Each block holds one compound with its values, some of them ahead of it.

Columns and labels:
Plasmodium falciparum [1] = test: Antimalarial activity against Plasmodium falciparum K14 incubated for 42 hrs in presence of 3H-hypoxanthine by top-count microbeta counter analysis; type: functional, organism-based
Plasmodium falciparum [2] = test: Antiplasmodial activity against chloroquine sensitive Plasmodium falciparum F-32 Tanzania incubated for 48 hrs; type: functional, organism-based
Plasmodium falciparum [3] = test: Antimalarial activity against Plasmodium falciparum W2 incubated for 24 hrs; type: functional, organism-based; conditions: Plasmodium falciparum, W2, 24 h
Plasmodium falciparum [4] = test: Antimalarial activity against Plasmodium falciparum 3D7 infected in human erythrocytes; type: functional, organism-based; conditions: 3D7, Erythrocyte
Plasmodium falciparum [5] = test: Antimalarial activity against Plasmodium falciparum Dd2 treated for 48 hrs followed by hypoxanthine addition; type: functional, organism-based; conditions: Dd2, 48 h
Plasmodium berghei [6] = test: In vivo antiplasmodial activity against Chloroquine susceptible Plasmodium berghei ANKA infected in CD-1 mouse assessed as decrease in parasitaemia at 30 to 50 mg/kg/day, ip relative to control; type: functional; design: scale not given: the % may be the effect or the level left; conditions: dose 30-50 mg/kg/day
Plasmodium falciparum [7] = test: Antimalarial activity against chloroquine sensitive Plasmodium falciparum D10 incubated for 72 hrs by spectrophotometric analysis; type: functional, organism-based; conditions: D10, 72 h
Plasmodium falciparum [8] = test: Antimalarial activity against chloroquine resistant Plasmodium falciparum W2 incubated for 72 hrs by spectrophotometric analysis; type: functional, organism-based; conditions: W2, 72 h
[9] = Cytotoxicity against HMEC-1 cells treated for 72 hrs by MTT assay; type: toxicity, cell-based; conditions: human
Plasmodium falciparum [10] = test: Antimalarial activity against Plasmodium falciparum D6; type: functional, organism-based
Plasmodium falciparum [11] = test: Antimalarial activity against Plasmodium falciparum W2; type: functional, organism-based
Plasmodium falciparum [12] = test: Antimalarial activity against Plasmodium falciparum TM91C235; type: functional, organism-based
Plasmodium berghei [13] = test: Antimalarial activity against Plasmodium berghei; type: functional, organism-based
Plasmodium falciparum [14] = test: Antimalarial activity against Plasmodium falciparum Dd2 by 96-well microtitre plate method based scintillation counting analysis; type: functional, organism-based
Plasmodium berghei [15] = test: In vivo antiplasmodial activity against Plasmodium berghei ANKA infected in CD-1 mouse assessed as decrease in parasitaemia at 50 mg/kg, ip measured after 4 days relative to control; type: functional; design: scale not given: the % may be the effect or the level left; conditions: time 4 day
Plasmodium falciparum [16] = test: Antiplasmodial activity against Chloroquine resistant Plasmodium falciparum FcB1 incubated for 48 hrs; type: functional, organism-based; conditions: FcB1, 48 h
Plasmodium falciparum [17] = test: Antimalarial activity against Plasmodium falciparum D10; type: functional, organism-based
[18] = Cytotoxicity against HMEC-1 cells; type: toxicity, cell-based; conditions: human
Plasmodium falciparum [19] = test: Antiplasmodial activity against Plasmodium falciparum Dd2 incubated for 48 hrs; type: functional, organism-based; conditions: Dd2, 48 h
Plasmodium falciparum [20] = test: Antiplasmodial activity against Plasmodium falciparum 3D7 incubated for 48 hrs; type: functional, organism-based; conditions: 3D7, 48 h
Plasmodium falciparum [21] = test: Antimalarial activity against Plasmodium falciparum K1 by 96-well microtitre plate method based scintillation counting analysis; type: functional, organism-based
Plasmodium falciparum [22] = test: Antiplasmodial activity against Plasmodium falciparum K1; type: functional, organism-based
HepG2 = test: Cytotoxicity against human HepG2 cells incubated for 24 hrs by MTT assay; type: functional
A549 = test: Cytotoxicity against human A549 cells incubated for 24 hrs by MTT assay; type: functional
[23] = Cytotoxicity against […] LLC-PK1 cells incubated for 24 hrs by MTT assay; type: toxicity, cell-based, Sus scrofa; conditions: pig
[24] = Cytotoxicity against human MRC5 cells incubated for 24 hrs by MTT assay; type: toxicity, cell-based

Structure (SMILES): CN(C)c1ccc(N2C(=O)C(Oc3ccccc3)C2c2ccc3c(c2)C(=O)c2ccccc2C3=O)cc1 (stereo not drawn)
IC50 (Plasmodium falciparum [1]): 9000 nM

Structure (SMILES): CN(C)c1ccc(N2C(=O)C(Oc3ccc(Cl)cc3)C2c2ccc3c(c2)C(=O)c2ccccc2C3=O)cc1 (stereo not drawn)
IC50 (Plasmodium falciparum [1]): 21000 nM

Structure (SMILES): O=C1C(O)=C(Cc2ccc([N+](=O)[O-])cc2)C(=O)c2ccccc21
IC50 (Plasmodium falciparum [4]): 13700 nM

Structure (SMILES): O=C(Cn1cc(COC2=CC(=O)c3ccccc3C2=O)nn1)c1ccc(-c2ccccc2)cc1
IC50 (Plasmodium falciparum [2]): 1600 nM

Structure (SMILES): COC1=C(Cc2ccccc2)C(=O)C2=C(NCCS2(=O)=O)C1=O
IC50 (Plasmodium falciparum [7]): 600 nM
IC50 (Plasmodium falciparum [8]): 700 nM
IC50 at 72 h [9]: 17600 nM

Structure (SMILES): COc1ccc(N2C(=O)C(Oc3ccc(Cl)cc3Cl)C2c2ccc3c(c2)C(=O)c2ccccc2C3=O)cc1 (stereo not drawn)
IC50 (Plasmodium falciparum [1]): 47000 nM

Structure (SMILES): O=C1C2=C(C(=O)c3ccccc31)[C@H]1OCc3cc4c(cc3[C@H]1CO2)OCO4
IC50 (Plasmodium falciparum [16]): 280 nM

Structure (SMILES): COc1ccc(N2C(=O)C(Oc3ccc(Cl)cc3)C2c2ccc3c(c2)C(=O)c2ccccc2C3=O)cc1 (stereo not drawn)
IC50 (Plasmodium falciparum [1]): 38000 nM

Structure (SMILES): O=C1c2ccccc2C(=O)c2cc(C3C(Oc4ccc5ccccc5c4)C(=O)N3c3cccc4ccccc34)ccc21 (stereo not drawn)
IC50 (Plasmodium falciparum [1]): 39000 nM

Structure (SMILES): CC1=C(Cc2ccc(F)cc2)C(=O)c2ccccc2C1=O
IC50 (Plasmodium falciparum [5]): 46 nM
Activity (Plasmodium berghei [6]): 20.7%

Structure (SMILES): CC1=C(Cc2ccc(C(F)(F)F)cc2)C(=O)c2ccccc2C1=O
Activity (Plasmodium berghei [6]): 20.7%

Structure (SMILES): CCC1=C(OC)C(=O)C2=C(C1=O)S(=O)(=O)CCN2
IC50 (Plasmodium falciparum [7]): 2450 nM
IC50 (Plasmodium falciparum [8]): 2370 nM
IC50 at 72 h [9]: > 100000 nM

Structure (SMILES): C/C=C/C1=C(O)C(=O)c2ccccc2C1=O
IC50 (Plasmodium falciparum [19]): 1600 nM
IC50 (Plasmodium falciparum [20]): 1200 nM

Structure (SMILES): COc1cc2c(cc1O)[C@H]1COC3=C(C(=O)c4ccccc4C3=O)[C@H]1O2
IC50 (Plasmodium falciparum [16]): ≥ 10000 nM

Structure (SMILES): Cc1cc2c(o1)C(=O)c1ccccc1C2=O
IC50 (Plasmodium falciparum [19]): 1200 nM
IC50 (Plasmodium falciparum [20]): 1500 nM

Structure (SMILES): COc1cc(O)c(-c2c(C)cc(O)c3c2C(=O)c2ccc([C@H]4c5cccc(O)c5C(=O)c5c(O)cc(C)c(-c6c(O)cc(OC)c(C(C)=O)c6O)c54)c(O)c2C3=O)c(O)c1C(C)=O (stereo in doubt; 12)
IC50 (Plasmodium falciparum [21]): 230 nM

Structure (SMILES): CC(C)=CCC1=C(O)C(=O)c2ccccc2C1=O [LAPACHOL]
CC50 (HepG2): ≥ 285000 nM
CC50 (A549): ≥ 285000 nM
CC50 at 24 h [23]: ≥ 285000 nM
CC50 at 24 h [24]: ≥ 285000 nM
IC50 (Plasmodium falciparum [3]): 80000 nM

Continued, in another order:

IC50 (Plasmodium falciparum [2]): 800 nM
Structure (SMILES): COc1ccc(-n2cc(COC3=CC(=O)c4ccccc4C3=O)nn2)cc1F

IC50 (Plasmodium falciparum [3]): 19500 nM
Structure (SMILES): CC1(C)OC2=C(CC1I)C(=O)c1ccccc1C2=O (stereo not drawn)

IC50 (Plasmodium falciparum [5]): 46 nM
Structure (SMILES): CC1=C(Cc2ccc([N+](=O)[O-])cc2)C(=O)c2ccccc2C1=O
Activity (Plasmodium berghei [6]): 20.7%

IC50 (Plasmodium falciparum [10]): 63 nM
IC50 (Plasmodium falciparum [11]): 214 nM
IC50 (Plasmodium falciparum [12]): 348 nM
IC50 (Plasmodium berghei [13]): 96.2 nM
Structure (SMILES): CCCCCC[C@H](C)CC1=C(O)C(=O)c2ccccc2C1=O

IC50 (Plasmodium falciparum [14]): 1.63 µg/mL (≈ 6.41 µM)
Structure (SMILES): Cc1ccc2c(c1)C(=O)c1c(O)ccc(O)c1C2=O

IC50 (Plasmodium falciparum [5]): 46 nM
Structure (SMILES): CC1=C(Cc2ccc(Br)cc2)C(=O)c2ccccc2C1=O
Activity (Plasmodium berghei [15]): 35.8%

IC50 (Plasmodium falciparum [11]): 1120 nM
IC50 (Plasmodium falciparum [17]): 810 nM
Structure (SMILES): COC1=C(Cc2ccc(OC(F)(F)F)cc2)C(=O)C2=C(NCCS2(=O)=O)C1=O
IC50 [18]: 3590 nM

IC50 (Plasmodium falciparum [10]): 5 nM
IC50 (Plasmodium falciparum [11]): 65 nM
IC50 (Plasmodium falciparum [12]): 84 nM
IC50 (Plasmodium berghei [13]): 17 nM
Structure (SMILES): C[C@@H](CCCCCC(F)(F)F)CC1=C(O)C(=O)c2ccccc2C1=O

IC50 (Plasmodium falciparum [19]): 1800 nM
IC50 (Plasmodium falciparum [20]): 400 nM
Structure (SMILES): CCc1cc2c(o1)C(=O)c1ccccc1C2=O

IC50 (Plasmodium falciparum [21]; Plasmodium falciparum, K1): 140 nM
Structure (SMILES): COc1cc(O)c(-c2c(C)cc(O)c3c2C(=O)c2ccc([C@H]4c5cccc(O)c5C(=O)c5c(O)cc(C)c(-c6c(O)cc(OC)c(C(C)=O)c6O)c54)c(O)c2C3=O)c(O)c1C(C)=O (stereo in doubt; 11)

IC50 (Plasmodium falciparum [22]): 3300 nM
Structure (SMILES): O=C(O)c1ccc2c(n1)C(=O)C1=C(C2=O)S(=O)(=O)CCN1 [ACIDIATHIAZONE A]

IC50 (Plasmodium falciparum [3]): 15800 nM
Structure (SMILES): CC1(C)CCC2=C(O1)C(=O)c1ccccc1C2=O [ALPHA-LAPACHONE]
CC50 (HepG2): 2090 nM
CC50 (A549): 2090 nM
CC50 at 24 h [23]: 2090 nM
CC50 at 24 h [24]: 2090 nM

IC50 (Plasmodium falciparum [3]): 20500 nM
Structure (SMILES): CC1(C)CCC2=C(O1)c1ccccc1C(=O)C2=O [LAPACHONE]
CC50 (HepG2): 2090 nM
CC50 (A549): 2090 nM
